# According to US20030204875A1, “Novel agrobacterium-mediated plant transformation method” (priority 1999, published 2003):
# Read-outs that look alike come from different tables or passages of the source.
# What was measured:
# [1] = tested on: immature embryos of genotype (H99×Pa 91)A188; assay: Transformation efficiency of corn with different growth inhibiting agents during co-culture; type: cell-based; settings: three days, OD 4.0
# Method: b) Biological assay (leaf bleach assay). Leaf samples (a leaf punch) from approximately 2-week-old seedlings were placed in wells of 24-well cell culture clusters (Costar Corporation, Cambridge, Mass.). Each well was filled with 0.5 ml aqueous solution composed of 300 mg/L paromomycin (Sigma) and 100 mg/L Benlate (a fungicide made by Du Pont), 100 mg/IL Benlate alone was used as a control. Three leaf samples from the same leaf of each plant were placed in two wells containing paromomycin plus Benlate and one well containing Benlate alone, respectively. Leaf samples from non-transformed plants were used as negative controls. The samples were vacuum-infiltrated in a dessicator using an in-house vacuum system for 5 min and then the clusters were sealed tightly with parafilm before being placed under light (140 μMol m-2s-1). The results were determined after 60 hours.
# Immature embryos of genotype (H99×Pa 91)A188 were isolated as described. […] The Agrobacterium strain was pre-induced as described. The inoculation was performed using a concentration of A660 OD 4.0 for 15 minutes as described. Post inoculation, Agrobacterium suspension was removed and embryos were placed on different semi-solid co-culture media supplemented with various bacteriocidal compounds. All the tissues were incubated for three days in the dark. The transformation protocol followed was as described previously (corn IE transformation) except that the 1st selection with 50 mg/L Paromomycin was replaced with 25 mg/L Paromomycin for 2 weeks and 50 mg/L Paromomycin for 2 additional weeks. Transformation efficiency was calculated based on the number of embryos producing nptII positive plants as determined by a leaf bleach assay as described earlier. Three weeks after the transformation, the quality and growth characteristics of IE-derived callus co-cultured in the presence of different growth inhibiting agents.
# Agrobacterium cells = settings: for Results (growth of Agrobacterium cells): 15 hours; for OD A660 after 15 hours growth: starting OD 0.2
# Method: Agrobacterium cultures used for transformation are pre-induced (except as otherwise indicated) by acetosyringone (200 μM) and glucose (2%) in AB based induction medium. The procedure followed was as follows:
# Agrobacterium cells were centrifuged at 4° C. for 10 min at 3250 g and the pellet was resuspended in the pre-induction medium to a final optical density of 0.2 at A660 and incubated at 28° C. for 12-15 h.
# (§1) During pre-induction, AgNO3 was added at two different levels (20 ? M and 40 ? M final concentration) to the pre-induction medium. The final optical density prior to the induction was adjusted to A660 (OD 0.2). Agrobacterium cells were pre-induced for 15 hours. Measurement of the optical density (measure of growth) was taken at the end of pre-induction, just prior to transformation. Agrobacterium cells pre-induced in the absence of AgNO3 were used as a control.
# [2] = tested on: T-DNA transfer to immature embryos of genotype H99×A188; settings: for Average number of GUS foci/explant: three days
# Method: (§2) Immature embryos of genotype H99×A188 were isolated as described above. The disarmed Agrobacterium strain ABI harboring binary vector pMON18365 (FIG. 2) was used. The Agrobacterium strain was pre-induced as described above and three mls of pre-induced Agrobacterium suspension (A660 OD 4.0) was added to a 6-well tissue culture plate as described earlier. The inoculation was performed for three hours under vacuum. The Agrobacterium suspension was removed and embryos were placed on respective semi-solid medium containing various concentrations of AgNO3 (0, 10, 20, 40, 60 ? M AgNO3 final concentration). All the tissues were incubated for three days in the dark. The efficiency of T-DNA delivery was estimated by a transient GUS analysis performed three days after co-culture by counting the number of GUS foci per immature embryo explant (Table 21). Efficiency of culture response was determined by transferring the embryos to a delay medium (D medium, supplemented with 500 mg/L Carbenicillin) and taking observation 2 weeks post transfer.
# [3] = tested on: immature embryos of genotype H99×A188; settings: observed 2 weeks post transfer to delay medium
# Method: as §2
# [4] = tested on: Agrobacterium (strain ABI); type: cell-based; set-up: key: “No Growth” indicates there was not an increase in cell density indicating bacteriocidal or bacteriostatic property of the chemical; “Slow Growth” indicates that a slight increase in cell density was noticed and a higher level may be lethal; “Growth” indicates no effect on bacterial growth at the concentration used relative to growth in control medium; settings: control, AgNO3 20 μM; twenty-four hours
# Method: Each of the chemicals listed in Table 26 was resuspended in MS-BMS media and added (final concentration 50 μM) to a 50 ml overnight culture of Agrobacterium (strain ABI). Twenty-four hours after inoculation the effect of the chemicals on the growth of Agrobacterium was recorded. A known bacteriocidal compound, Carbenicillin at a final concentration of 50 mg/L and AgNO3 (20 μM) were used as controls.
# [5] = tested on: T-DNA delivery to immature embryos of corn genotype H99×A188; settings: co-culture with 10 μM AgNO3, three days
# Method: The Agrobacterium strain was pre-induced as described previously and three mls of pre-induced Agrobacterium suspension (A660 OD 1.0, 2.0, 3.0 and 4.0) was used. After adding the explants the Agrobacterium suspension cells, the inoculation was performed for 15 minutes. The Agrobacterium suspension was removed and embryos were placed on 1/2 MS corn co-culture medium supplemented with 10 ? M AgNO3 (final concentration). The co-culture duration was for three days in the dark. The efficiency of T-NA delivery was estimated by a transient GUS analysis three days after co-culture by incubating embryos directly in GUS staining buffer for 12-15 hours and counting the number of GUS foci per immature embryo explant (Table 20).
# [6] = tested on: T-DNA transfer (tumor induction) to Kalanchoe cells
# Method: Transformation of BMS suspension cells was performed following the protocol described in Table 8. For transforming kalanchoe leaves, a suspension of cells from Agrobacterium strain A281 was applied after performing mechanical wounding as described in White and Nester. The Agrobacterium strain, A136 harboring a binary vector pMON25457 (FIG. 3) was used as a negative control.
# as §1
# [7] = 20 μM AgNO3 in pre-induction medium
# [8] = 40 μM AgNO3 in pre-induction medium
# [9] = 10 μM AgNO3 in co-culture medium
# [10] = 20 μM AgNO3 in co-culture medium
# [11] = 40 μM AgNO3 in co-culture medium
# [12] = 60 μM AgNO3 in co-culture medium
smiles,measurement,setting,value
"O=[N+]([O-])[O-].[Ag+] [AgNO3, silver nitrate]",% Transformation,[1]; 20 μM in co-culture medium,16%
same,% Transformation,[1]; 50 μM in co-culture medium,6.3%
same,Results (growth of Agrobacterium cells),Agrobacterium cells; [7],no growth
same,OD A660 after 15 hours growth,Agrobacterium cells; [7],0.23
same,Results (growth of Agrobacterium cells),Agrobacterium cells; [8],no growth
same,OD A660 after 15 hours growth,Agrobacterium cells; [8],0.24
same,"Effect on Agrobacterium cells, plating on semi-solid LB plates",Agrobacterium cells; 15 hour culture period in the presence of AgNO3 (20 or 40 μM),lethal
same,Effect on frequency of T-DNA transfer and tissue survival,[2]; 10 μM AgNO3 during co-culture,positive effect
same,Average number of GUS foci/explant,[2]; [9],63
same,Average number of GUS foci/explant,[2]; [10],26
same,Average number of GUS foci/explant,[2]; [11],28
same,Effect on T-DNA transfer,[2]; 60 μM AgNO3 during co-culture,inhibitory
same,Average number of GUS foci/explant,[2]; [12],12
same,% of immature embryos responding to culture,[3]; [9],42%
same,% of immature embryos responding to culture,[3]; [10],64%
same,% of immature embryos responding to culture,[3]; [11],62%
same,% of immature embryos responding to culture,[3]; [12],60%
same,Effect (on growth of Agrobacterium),[4],No Growth
same,Average number of GUS foci/explant,"[5]; OD660 1.0, Pre-induced",7
same,Average number of GUS foci/explant,"[5]; OD660 2.0, Not pre-induced (grown in LB)",2
same,Average number of GUS foci/explant,"[5]; OD660 2.0, Pre-induced",28
same,Average number of GUS foci/explant,"[5]; OD660 3.0, Pre-induced",39
same,Average number of GUS foci/explant,"[5]; OD660 4.0, Not pre-induced (grown in LB)",<1
same,Average number of GUS foci/explant,"[5]; OD660 4.0, Pre-induced",66
same,Results (T-DNA transfer),[6]; A281 pre-induced with 20 μM AgNO3,no transfer
same,Results (T-DNA transfer),[6]; A281 pre-induced with 40 μM AgNO3,no transfer
